In patent publication US6387921B1 (dated 2002):

CC1(C)[C@H]2Cc3c(N)cccc3[C@]1(C)CCN2CCOCc1c(F)cccc1F.Cl.Cl
melting point: 270 °C
